Structures can show the parent of a compound that is named as a salt.
Work on `CCCCCS(=O)(=O)NC(=O)c1ccc2nc(C)n(Cc3ccc(-n4cccc4)cc3Cl)c2n1` [Example 83, 3-(2-chloro-4-(1-pyrrolyl)benzyl)-2-methyl-5-(1-pentanesulfonylcarbamoyl)-3H-imidazo[4,5-b]pyridine] yielded a melting point of 171 to 172 °C. In the case of `CCCCCOc1ccc(Cn2c(C)nc3ccc(C(=O)NS(=O)(=O)c4ccc(Cl)s4)nc32)c(Cl)c1` [Example 24, 3-[2-chloro-4-(1-pentyloxy)benzyl]-2-methyl-5-[(5-chlorothiophen-2-yl)sulfonylcarbamoyl]-3H-imidazo[4,5-b]pyridine], the melting point is reported as 154 to 155 °C. In the case of `CCC/C=C/S(=O)(=O)NC(=O)c1ccc2nc(C)n(Cc3ncc(NC(=O)OCC)cc3Cl)c2n1` (as salt: sodium) [Example 133, 3-[(3-chloro-5-(N-(ethoxycarbonyl)amino)pyridin-2-yl)methyl]-2-methyl-5-((E)-1-penten-1-ylsulfonylcarbamoyl)-3H-imidazo[4,5-b]pyridine], the melting point is reported as 236 to 239 °C. For `CCCCCS(=O)(=O)NC(=O)c1ccc2nc(C)n(Cc3ccc4c(nc(C)n4C)c3Cl)c2n1` [Example 120, 3-[(4-chloro-1,2-dimethyl-1H-benzimidazol-5-yl)methyl]-2-methyl-5-(1-pentanesulfonylcarbamoyl)-3H-imidazo[4,5-b]pyridine], the melting point was 229 to 231 °C. Work on `CCCCS(=O)(=O)NC(=O)c1ccc2nc(C)n(Cc3ccc(NC(=O)OC(C)(C)C)cc3Cl)c2n1` [Example 109, 5-(1-butanesulfonylcarbamoyl)-3-(4-(N-t-butoxycarbonylamino)-2-chlorobenzyl)-2-methyl-3H-imidazo[4,5-b]pyridine] yielded a melting point of 229 to 230 °C. In the case of `CCCCS(=O)(=O)NC(=O)c1ccc2nc(C)n(Cc3ccc(NC(=O)OC(C)C)cc3Cl)c2n1` [Example 103, 5-(1-butanesulfonylcarbamoyl)-3-(2-chloro-4-(N-(isopropoxycarbonyl)amino)benzyl)-2-methyl-3H-imidazo[4,5-b]pyridine], the melting point is reported as 181 to 182 °C. `CCCCCS(=O)(=O)NC(=O)c1ccc2nc(C)n(Cc3ccc(N(C)CCCC)cc3Cl)c2n1` [Example 45, 3-(4-((1-butyl)methylamino)-2-chlorobenzyl)-2-methyl-5-(1-pentanesulfonylcarbamoyl)-3H-imidazo[4,5-b]pyridine] gave a melting point of 129 to 130 °C. In the case of `CCCCCN(C)c1ccc(Cn2c(C)nc3ccc(C(=O)NS(=O)(=O)CCCCC)nc32)c(Cl)c1` [Example 52, 3-(2-chloro-4-(methyl-(1-pentyl)amino)benzyl)-2-methyl-5-(1-pentanesulfonylcarbamoyl)-3H-imidazo[4,5-b]pyridine], the melting point is reported as 83 to 85 °C. With `CCC/C=C/S(=O)(=O)NC(=O)c1ccc2nc(C)n(Cc3ccc(NC(=O)OC(C)C)cc3Cl)c2n1` [Example 102, 3-(2-chloro-4-(N-(isopropoxycarbonyl)amino)benzyl)-2-methyl-5-((E)-1-penten-1-ylsulfonylcarbamoyl)-3H-imidazo[4,5-b]pyridine] the melting point was 187 to 189 °C. For `CCCCCS(=O)(=O)NC(=O)c1ccc2nc(C)n(Cc3ccc(NC(=O)OC(C)(C)C)cc3Cl)c2n1` [Example 97, 3-(4-(N-(tert-butoxycarbonyl)amino)-2-chlorobenzyl)-2-methyl-5-(1-pentanesulfonylcarbamoyl)-3H-imidazo[4,5-b]pyridine], the melting point was 222 to 224 °C. With `CCCCCS(=O)(=O)NC(=O)c1ccc2nc(C)n(Cc3ncc(NC(=O)OC(C)C)cc3Cl)c2n1` [Example 135, 3-[(5-(N-(isopropoxycarbonyl)amino)-3-chloropyridin-2-yl)methyl]-2-methyl-5-(1-pentanesulfonylcarbamoyl)-3H-imidazo[4,5-b]pyridine] the melting point was 228 to 230 °C. Compound `CCCCCS(=O)(=O)NC(=O)c1ccc2nc(C)n(Cc3ccc(N(C)C(=O)OCc4ccccc4)cc3Cl)c2n1` [Example 146, 3-(4-(N-(benzyloxycarbonyl)-N-methylamino)-2-chlorobenzyl)-2-methyl-5-(1-pentanesulfonylcarbamoyl)-3H-imidazo[4,5-b]pyridine] has a melting point of 120 to 121 °C. For `CCCCCS(=O)(=O)NC(=O)c1ccc2nc(C)n(Cc3ccc(NC)cc3Cl)c2n1` [Example 42, 3-(2-chloro-4-(methylamino)benzyl)-2-methyl-5-(1-pentanesulfonylcarbamoyl)-3H-imidazo[4,5-b]pyridine], the melting point was 185 to 186 °C. For `CCCCS(=O)(=O)NC(=O)c1ccc2nc(C)n(Cc3ccc(OC)cc3Cl)c2n1` [Example 6, 5-(1-butanesulfonylcarbamoyl)-3-(2-chloro-4-methoxybenzyl)-2-methyl-3H-imidazo[4,5-b]pyridine], the melting point was 175 to 177 °C. Compound `CCCCS(=O)(=O)NC(=O)c1cc(C)c2nc(C)n(Cc3ccc(OCCC)cc3Cl)c2n1` [Example 36, 5-(1-butanesulfonylcarbamoyl)-3-[2-chloro-4-(1-propoxy)benzyl]-2,7-dimethyl-3H-imidazo[4,5-b]pyridine] has a melting point of 164 to 166 °C. `CCCCCS(=O)(=O)NC(=O)c1ccc2nc(C)n(Cc3cnc(Cl)cc3Cl)c2n1` showed a melting point of 161 to 163 °C. In the case of `CCCCCS(=O)(=O)NC(=O)c1ccc2nc(C)n(Cc3ncc(C(F)(F)F)cc3Cl)c2n1` [Example 57, 3-[(3-chloro-5-(trifluoromethyl)-2-pyridyl)methyl]-2-methyl-5-(1-pentanesulfonylcarbamoyl)-3H-imidazo[4,5-b]pyridine], the melting point is reported as 169 to 170 °C. Work on `CCCCCS(=O)(=O)NC(=O)c1ccc2nc(C)n(Cc3ccc(-c4ccccc4)nc3Cl)c2n1` [Example 127, 3-[(2-chloro-6-phenylpyridin-3-yl)methyl]-2-methyl-5-(1-pentanesulfonylcarbamoyl)-3H-imidazo[4,5-b]pyridine] yielded a melting point of 224 to 225 °C. In the case of `CCCCS(=O)(=O)NC(=O)c1ccc2nc(C)n(Cc3ccc(NC(=O)OCC)cc3Cl)c2n1` [Example 111, 3-(4-ethoxycarbonylamino-2-chlorobenzyl)-2-methyl-5-(1-butanesulfonylcarbamoyl)-3H-imidazo[4,5-b]pyridine], the melting point is reported as 236 to 237 °C. For `CCCCS(=O)(=O)NC(=O)c1ccc2nc(C)n(Cc3ccc(-c4ccco4)cc3Cl)c2n1` [Example 69, 5-(1-butanesulfonylcarbamoyl)-3-[2-chloro-4-(2-furyl)benzyl]-2-methyl-3H-imidazo[4,5-b]pyridine], the melting point was 208 to 209 °C. `CCCCCS(=O)(=O)NC(=O)c1ccc2nc(C)n(Cc3ccc(OCC4CCCC4)cc3Cl)c2n1` [Example 27, 3-(2-chloro-4-((cyclopentylmethyl)oxy)benzyl)-2-methyl-5-(1-pentanesulfonylcarbamoyl)-3H-imidazo[4,5-b]pyridine] showed a melting point of 160 to 161 °C. For `CCCCCS(=O)(=O)NC(=O)c1ccc2nc(C)n(Cc3ccc(N(C)C(=O)OC(C)(C)C)cc3Cl)c2n1` [Example 41, 3-(4-(N-(tert-butoxycarbonyl)-N-methylamino)-2-chlorobenzyl)-2-methyl-5-(1-pentanesulfonylcarbamoyl)-3H-imidazo[4,5-b]pyridine], the melting point was 160 to 161 °C. Work on `CCCCCS(=O)(=O)NC(=O)c1ccc2nc(C)n(Cc3ccc(N(C)C(=O)OCCC)cc3Cl)c2n1` [Example 95, 3-(2-chloro-4-(N-methyl-N-(1-propoxycarbonyl)amino)benzyl)-2-methyl-5-(1-pentanesulfonylcarbamoyl)-3H-imidazo[4,5-b]pyridine] yielded a melting point of 169 to 170 °C. With `CCCCCS(=O)(=O)NC(=O)c1ccc2nc(C)n(Cc3ccc(OC(C)C)cc3Cl)c2n1` [Example 14, 3-(2-chloro-4-isopropoxybenzyl)-2-methyl-5-(1-pentanesulfonylcarbamoyl)-3H-imidazo[4,5-b]pyridine] the melting point was 130 to 133 °C. With `CCCCCS(=O)(=O)NC(=O)c1ccc2nc(C)n(Cc3ccc(N(C)C(=O)OC(C)(C)C)cc3Cl)c2n1.[Na]` the melting point was 231 to 233 °C. In the case of `CCCCCS(=O)(=O)NC(=O)c1cc(C)c2nc(C)n(Cc3ccc(OCCC)cc3Cl)c2n1` [Example 35, 3-(2-chloro-4-(1-propoxy)benzyl)-2,7-dimethyl-5-(1-pentanesulfonylcarbamoyl)-3H-imidazo[4,5-b]pyridine], the melting point is reported as 161 to 162 °C. With `CCCCCS(=O)(=O)NC(=O)c1ccc2nc(C)n(Cc3ccc(-c4ccc(Cl)s4)cc3Cl)c2n1.[Na]` the melting point was over 250 °C. Work on `CCCNS(=O)(=O)NC(=O)c1ccc2nc(C)n(Cc3ccc(OCC)cc3Cl)c2n1` [Example 10, 3-(2-chloro-4-ethoxybenzyl)-2-methyl-5-((1-propylaminosulfonyl)carbamoyl)-3H-imidazo[4,5-b]pyridine] yielded a melting point of 152 to 155 °C. In the case of `CCC/C=C/S(=O)(=O)NC(=O)c1ccc2nc(C)n(Cc3ccc(NC(=O)OC(C)(C)C)cc3Cl)c2n1` [Example 112, 3-(4-(N-t-butoxycarbonylamino)-2-chlorobenzyl)-2-methyl-5-((E)-1-penten-1-ylsulfonylcarbamoyl)-3H-imidazo[4,5-b]pyridine], the melting point is reported as 215 to 216 °C. With `CCCCCS(=O)(=O)NC(=O)c1ccc2nc(C)n(Cc3ccc(OCCC)cc3Cl)c2n1` [Example 12, 3-(2-chloro-4-(1-propoxy)benzyl)-2-methyl-5-(1-pentanesulfonylcarbamoyl)-3H-imidazo[4,5-b]pyridine] the melting point was 131 to 134 °C. In the case of `CCCCCS(=O)(=O)NC(=O)c1ccc2nc(C)n(Cc3ccc(NC(=O)OC(C)C)cc3Cl)c2n1` [Example 108, 3-(4-(N-(isopropoxycarbonyl)amino)-2-chlorobenzyl)-2-methyl-5-(1-pentanesulfonylcarbamoyl)-3H-imidazo[4,5-b]pyridine], the melting point is reported as 198 to 199 °C. `CCCCCS(=O)(=O)NC(=O)c1ccc2nc(C)n(Cc3ncc(NC(=O)OC(C)(C)C)cc3Cl)c2n1` [Example 129, 3-[(5-(N-(tert-butoxycarbonyl)amino)-3-chloropyridin-2-yl)methyl]-2-methyl-5-(1-pentanesulfonylcarbamoyl)-3H-imidazo[4,5-b]pyridine] gave a melting point of 193 to 194 °C. With `CCCCCS(=O)(=O)NC(=O)c1ccc2nc(C)n(Cc3ccc(OCCCC)cc3Cl)c2n1` [Example 17, 3-(2-chloro-4-(1-butoxy)benzyl)-2-methyl-5-(1-pentanesulfonylcarbamoyl)-3H-imidazo[4,5-b]pyridine] the melting point was 133 to 136 °C.

From patent US6573274B1, “Sulfonamide compounds and uses thereof as medicines” (Fujisawa Pharmaceutical Co. Ltd., priority 1998, dated 2003)
